Tests used:
[1] = molecular target: Interleukin-1 receptor-associated kinase 1 (Homo sapiens) (UniProt P51617); assay: IRAK1(h) Eurofins kinase panel; details: Compound concentration 1.0 uM
[2] = molecular target: T1, Myosin-IIIb (Homo sapiens) (UniProt Q8WXR4); assay: MYO3B(h) Eurofins kinase panel; details: Compound concentration 1.0 uM
T1 sequence (whole entry): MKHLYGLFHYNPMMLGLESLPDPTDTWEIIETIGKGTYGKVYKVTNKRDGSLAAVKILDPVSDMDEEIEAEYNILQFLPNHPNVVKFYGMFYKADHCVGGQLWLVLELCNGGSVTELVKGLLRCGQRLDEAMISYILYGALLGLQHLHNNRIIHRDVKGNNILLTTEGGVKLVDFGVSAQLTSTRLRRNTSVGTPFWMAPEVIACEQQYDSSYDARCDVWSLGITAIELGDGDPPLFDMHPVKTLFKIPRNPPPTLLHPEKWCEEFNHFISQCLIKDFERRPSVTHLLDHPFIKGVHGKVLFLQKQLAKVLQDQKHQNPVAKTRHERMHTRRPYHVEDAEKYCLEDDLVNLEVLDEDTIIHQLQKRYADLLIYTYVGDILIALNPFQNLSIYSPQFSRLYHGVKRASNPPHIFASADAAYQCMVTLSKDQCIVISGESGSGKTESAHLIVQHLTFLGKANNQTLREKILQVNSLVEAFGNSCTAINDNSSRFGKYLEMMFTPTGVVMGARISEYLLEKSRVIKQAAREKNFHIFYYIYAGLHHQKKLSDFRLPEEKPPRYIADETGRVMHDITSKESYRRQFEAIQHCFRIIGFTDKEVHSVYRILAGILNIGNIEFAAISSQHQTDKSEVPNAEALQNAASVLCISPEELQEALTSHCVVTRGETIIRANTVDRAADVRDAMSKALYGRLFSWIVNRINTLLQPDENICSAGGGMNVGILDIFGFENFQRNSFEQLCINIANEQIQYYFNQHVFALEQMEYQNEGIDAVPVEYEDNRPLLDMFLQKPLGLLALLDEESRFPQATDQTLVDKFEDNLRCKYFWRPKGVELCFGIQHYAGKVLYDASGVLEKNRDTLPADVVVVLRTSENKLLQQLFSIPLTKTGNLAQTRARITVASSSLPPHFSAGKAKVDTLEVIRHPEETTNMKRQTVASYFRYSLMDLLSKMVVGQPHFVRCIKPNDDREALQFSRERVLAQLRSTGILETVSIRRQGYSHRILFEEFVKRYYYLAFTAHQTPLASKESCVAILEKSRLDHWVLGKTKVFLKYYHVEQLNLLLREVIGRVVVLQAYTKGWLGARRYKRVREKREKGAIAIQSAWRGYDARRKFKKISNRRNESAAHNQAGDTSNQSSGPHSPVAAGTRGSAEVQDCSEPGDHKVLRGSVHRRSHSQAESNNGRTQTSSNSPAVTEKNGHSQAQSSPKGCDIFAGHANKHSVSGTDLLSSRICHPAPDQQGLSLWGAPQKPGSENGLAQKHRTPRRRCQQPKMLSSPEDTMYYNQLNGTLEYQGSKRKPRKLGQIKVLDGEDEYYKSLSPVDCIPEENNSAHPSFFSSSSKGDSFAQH

[3] = test system: A2780; assay: A2780 cell line Proliferation assay; format: functional, Homo sapiens; details: time 3 day
[4] = molecular target: Hepatocyte growth factor receptor (Homo sapiens) (UniProt P08581); details: Compound concentration 1.0 uM
Hepatocyte growth factor receptor (Homo sapiens), sequence (P08581 whole entry): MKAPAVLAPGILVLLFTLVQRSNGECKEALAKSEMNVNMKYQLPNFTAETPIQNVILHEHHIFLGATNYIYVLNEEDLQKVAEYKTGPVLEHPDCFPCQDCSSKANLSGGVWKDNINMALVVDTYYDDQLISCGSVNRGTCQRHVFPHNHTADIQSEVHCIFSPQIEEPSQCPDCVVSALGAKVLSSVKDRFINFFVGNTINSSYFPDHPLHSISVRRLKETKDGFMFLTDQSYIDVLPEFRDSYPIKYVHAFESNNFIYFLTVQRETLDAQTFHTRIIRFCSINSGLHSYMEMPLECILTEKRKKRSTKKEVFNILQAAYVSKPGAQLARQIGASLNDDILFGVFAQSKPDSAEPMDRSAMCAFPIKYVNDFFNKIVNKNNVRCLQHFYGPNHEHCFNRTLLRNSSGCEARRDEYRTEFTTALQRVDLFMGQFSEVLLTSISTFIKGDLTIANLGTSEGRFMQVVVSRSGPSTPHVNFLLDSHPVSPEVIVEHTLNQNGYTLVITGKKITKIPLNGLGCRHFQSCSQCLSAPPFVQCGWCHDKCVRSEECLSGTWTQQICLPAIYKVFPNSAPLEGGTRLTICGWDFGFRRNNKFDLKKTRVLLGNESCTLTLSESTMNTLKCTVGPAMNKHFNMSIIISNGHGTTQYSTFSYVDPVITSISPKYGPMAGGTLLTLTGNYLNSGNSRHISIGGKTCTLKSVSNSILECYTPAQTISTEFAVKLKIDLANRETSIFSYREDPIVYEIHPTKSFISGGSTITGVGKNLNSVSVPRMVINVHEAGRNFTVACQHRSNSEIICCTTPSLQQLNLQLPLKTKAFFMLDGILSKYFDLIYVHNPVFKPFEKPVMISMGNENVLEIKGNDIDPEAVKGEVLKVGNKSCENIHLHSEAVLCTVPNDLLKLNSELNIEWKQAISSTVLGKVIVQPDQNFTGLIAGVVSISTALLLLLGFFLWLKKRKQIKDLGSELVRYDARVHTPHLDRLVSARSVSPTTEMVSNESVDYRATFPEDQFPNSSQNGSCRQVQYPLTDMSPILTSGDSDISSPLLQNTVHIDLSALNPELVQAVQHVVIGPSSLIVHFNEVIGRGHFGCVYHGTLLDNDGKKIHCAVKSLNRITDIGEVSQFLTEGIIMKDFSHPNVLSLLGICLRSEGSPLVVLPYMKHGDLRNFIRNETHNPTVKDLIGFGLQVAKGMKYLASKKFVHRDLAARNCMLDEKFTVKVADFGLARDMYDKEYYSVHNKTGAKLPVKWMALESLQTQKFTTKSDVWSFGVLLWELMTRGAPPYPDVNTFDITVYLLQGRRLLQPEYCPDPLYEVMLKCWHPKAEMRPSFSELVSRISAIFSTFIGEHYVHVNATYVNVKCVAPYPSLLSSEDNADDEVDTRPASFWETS

[5] = molecular target: Focal adhesion kinase 1 (Homo sapiens) (UniProt Q05397); assay: FAK(h) Eurofins kinase panel; details: Compound concentration 1.0 uM
Focal adhesion kinase 1 (Homo sapiens), sequence (Q05397 2-1052 limits assumed): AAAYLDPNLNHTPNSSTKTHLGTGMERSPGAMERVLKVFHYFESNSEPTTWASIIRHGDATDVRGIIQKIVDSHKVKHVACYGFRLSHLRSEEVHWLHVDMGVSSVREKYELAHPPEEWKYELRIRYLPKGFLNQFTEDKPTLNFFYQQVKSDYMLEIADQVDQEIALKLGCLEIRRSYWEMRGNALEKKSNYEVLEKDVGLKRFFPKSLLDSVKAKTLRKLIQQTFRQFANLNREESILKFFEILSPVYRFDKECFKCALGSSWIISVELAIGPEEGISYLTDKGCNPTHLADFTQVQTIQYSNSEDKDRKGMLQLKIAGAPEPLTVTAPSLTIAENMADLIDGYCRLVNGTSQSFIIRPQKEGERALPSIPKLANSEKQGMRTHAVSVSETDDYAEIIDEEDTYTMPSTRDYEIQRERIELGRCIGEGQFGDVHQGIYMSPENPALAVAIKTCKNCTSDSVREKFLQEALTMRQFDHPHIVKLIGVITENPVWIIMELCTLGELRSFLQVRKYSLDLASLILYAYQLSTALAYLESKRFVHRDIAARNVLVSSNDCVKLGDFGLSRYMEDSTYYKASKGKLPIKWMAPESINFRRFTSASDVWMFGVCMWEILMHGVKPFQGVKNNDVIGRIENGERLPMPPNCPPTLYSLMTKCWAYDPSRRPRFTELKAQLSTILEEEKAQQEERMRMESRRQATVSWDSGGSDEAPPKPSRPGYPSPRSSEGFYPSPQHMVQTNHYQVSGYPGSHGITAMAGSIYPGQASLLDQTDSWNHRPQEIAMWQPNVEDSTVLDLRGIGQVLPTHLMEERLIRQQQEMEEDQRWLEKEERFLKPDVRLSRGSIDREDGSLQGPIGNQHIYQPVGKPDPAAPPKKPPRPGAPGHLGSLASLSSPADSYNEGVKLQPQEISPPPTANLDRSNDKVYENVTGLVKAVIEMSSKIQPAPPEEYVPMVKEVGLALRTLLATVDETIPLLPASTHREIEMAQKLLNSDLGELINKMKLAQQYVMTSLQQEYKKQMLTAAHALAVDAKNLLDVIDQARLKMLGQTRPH

[6] = molecular target: DNA-dependent protein kinase catalytic subunit (Homo sapiens) (UniProt P78527); assay: DNA-PK(h) Eurofins kinase panel; details: Compound concentration 1.0 uM
[7] = molecular target: T2, Mitogen-activated protein kinase kinase kinase 2 (Homo sapiens) (UniProt Q9Y2U5); assay: MEKK2(h) Eurofins kinase panel; details: Compound concentration 1.0 uM
T2 sequence (whole entry): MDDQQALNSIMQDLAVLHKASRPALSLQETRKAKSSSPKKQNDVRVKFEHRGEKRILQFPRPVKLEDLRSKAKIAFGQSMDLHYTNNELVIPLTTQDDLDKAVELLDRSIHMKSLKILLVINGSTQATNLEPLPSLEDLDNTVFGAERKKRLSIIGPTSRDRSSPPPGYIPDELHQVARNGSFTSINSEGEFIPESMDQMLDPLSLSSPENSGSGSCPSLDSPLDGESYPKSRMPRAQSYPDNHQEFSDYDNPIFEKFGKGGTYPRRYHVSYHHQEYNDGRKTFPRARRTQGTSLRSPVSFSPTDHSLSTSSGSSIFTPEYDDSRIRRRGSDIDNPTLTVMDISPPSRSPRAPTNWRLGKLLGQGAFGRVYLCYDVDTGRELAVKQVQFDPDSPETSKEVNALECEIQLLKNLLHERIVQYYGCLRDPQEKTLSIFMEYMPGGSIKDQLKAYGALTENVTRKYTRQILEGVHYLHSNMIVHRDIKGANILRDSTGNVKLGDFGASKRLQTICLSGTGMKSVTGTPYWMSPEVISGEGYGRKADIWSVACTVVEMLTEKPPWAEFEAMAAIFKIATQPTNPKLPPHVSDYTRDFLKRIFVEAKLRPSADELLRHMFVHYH

[8] = molecular target: Serine/threonine-protein kinase PAK 2 (Homo sapiens) (UniProt Q13177); assay: PAK2(h) Eurofins kinase panel; details: Compound concentration 1.0 uM
Serine/threonine-protein kinase PAK 2 (Homo sapiens), sequence (Q13177 whole entry): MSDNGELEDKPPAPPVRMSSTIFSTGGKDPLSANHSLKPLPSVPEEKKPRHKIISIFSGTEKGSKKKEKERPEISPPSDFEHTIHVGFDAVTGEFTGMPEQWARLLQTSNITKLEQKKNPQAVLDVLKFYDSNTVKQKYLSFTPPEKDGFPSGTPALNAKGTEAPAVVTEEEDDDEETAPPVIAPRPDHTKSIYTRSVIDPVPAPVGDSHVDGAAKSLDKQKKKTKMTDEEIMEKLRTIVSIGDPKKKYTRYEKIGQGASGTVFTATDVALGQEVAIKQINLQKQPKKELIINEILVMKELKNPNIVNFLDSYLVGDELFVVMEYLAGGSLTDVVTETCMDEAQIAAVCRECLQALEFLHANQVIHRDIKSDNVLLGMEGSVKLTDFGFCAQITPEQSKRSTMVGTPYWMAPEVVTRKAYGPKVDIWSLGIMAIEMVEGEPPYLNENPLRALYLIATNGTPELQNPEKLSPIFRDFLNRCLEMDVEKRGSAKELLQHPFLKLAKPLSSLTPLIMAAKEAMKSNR

[9] = molecular target: T3, Dual specificity protein kinase TTK (Homo sapiens) (UniProt P33981); assay: TTK(h) Eurofins kinase panel; details: Compound concentration 1.0 uM
T3 sequence (whole entry): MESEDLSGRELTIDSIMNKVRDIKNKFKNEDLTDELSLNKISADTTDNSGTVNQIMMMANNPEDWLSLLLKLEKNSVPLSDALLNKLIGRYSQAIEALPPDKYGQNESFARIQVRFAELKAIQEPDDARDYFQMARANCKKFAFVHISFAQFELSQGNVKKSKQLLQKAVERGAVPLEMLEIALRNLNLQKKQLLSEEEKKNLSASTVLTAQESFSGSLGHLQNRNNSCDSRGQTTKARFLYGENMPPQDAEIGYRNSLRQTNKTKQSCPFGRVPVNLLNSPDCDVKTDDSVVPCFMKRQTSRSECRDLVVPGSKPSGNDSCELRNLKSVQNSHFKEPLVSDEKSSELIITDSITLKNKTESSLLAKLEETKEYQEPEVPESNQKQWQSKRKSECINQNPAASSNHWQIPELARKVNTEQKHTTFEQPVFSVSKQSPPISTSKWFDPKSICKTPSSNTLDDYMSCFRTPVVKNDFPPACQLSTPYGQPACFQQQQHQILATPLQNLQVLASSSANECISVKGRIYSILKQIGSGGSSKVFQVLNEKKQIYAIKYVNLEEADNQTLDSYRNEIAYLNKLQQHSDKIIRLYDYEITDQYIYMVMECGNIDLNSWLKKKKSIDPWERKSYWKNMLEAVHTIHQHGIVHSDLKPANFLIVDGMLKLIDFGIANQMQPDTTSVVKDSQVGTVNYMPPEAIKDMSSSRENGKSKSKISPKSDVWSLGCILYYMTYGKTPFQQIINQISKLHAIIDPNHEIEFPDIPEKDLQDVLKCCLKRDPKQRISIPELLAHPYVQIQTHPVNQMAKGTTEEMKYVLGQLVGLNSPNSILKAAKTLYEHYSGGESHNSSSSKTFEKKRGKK

Interleukin-1 receptor-associated kinase 1 (Homo sapiens), sequence (P51617 whole entry, looked up): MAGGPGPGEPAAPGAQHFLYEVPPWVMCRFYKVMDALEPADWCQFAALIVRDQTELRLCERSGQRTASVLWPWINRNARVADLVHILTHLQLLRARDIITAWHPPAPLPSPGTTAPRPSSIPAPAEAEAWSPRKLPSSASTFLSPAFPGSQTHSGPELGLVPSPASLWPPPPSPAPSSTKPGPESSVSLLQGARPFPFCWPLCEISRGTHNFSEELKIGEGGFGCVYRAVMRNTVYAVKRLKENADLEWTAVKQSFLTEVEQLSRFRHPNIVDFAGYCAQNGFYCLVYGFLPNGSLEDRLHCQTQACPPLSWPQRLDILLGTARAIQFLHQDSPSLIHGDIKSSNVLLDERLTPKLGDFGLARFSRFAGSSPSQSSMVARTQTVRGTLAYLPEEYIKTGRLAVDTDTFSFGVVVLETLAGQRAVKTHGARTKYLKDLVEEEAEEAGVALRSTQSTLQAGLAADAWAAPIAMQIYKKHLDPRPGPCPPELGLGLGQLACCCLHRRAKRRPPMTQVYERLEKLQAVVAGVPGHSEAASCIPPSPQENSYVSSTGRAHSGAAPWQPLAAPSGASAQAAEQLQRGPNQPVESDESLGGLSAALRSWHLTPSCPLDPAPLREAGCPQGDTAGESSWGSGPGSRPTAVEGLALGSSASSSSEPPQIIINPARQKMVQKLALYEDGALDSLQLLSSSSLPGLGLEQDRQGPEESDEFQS

## CCc1ccccc1C(=O)Nc1n[nH]c2c(C)c(F)c(C3C(C#N)=C(C)N(C)C(C)=C3C#N)cc12 [BAY-3827]
[1]
  % residual kinase activity: 99%
[2]
  % residual kinase activity: 24%
[3]
  Cell Proliferation IC50: >33 µM
[4]
  % residual kinase activity: 1%
[5]
  % residual kinase activity: 84%
[6]
  % residual kinase activity: 94%
[7]
  % residual kinase activity: 103%
[8]
  % residual kinase activity: 105%
[9]
  % residual kinase activity: 90%

From ChEMBL document CHEMBL4507319 (2021)
